In patent US20070232607A1, “Quinazoline Derivatives as Erbb Receptor Tyrosine kinases” (priority 2004, published 2007):

What was measured:
EGFR tyrosine kinase = target: T1, EGFR tyrosine kinase (Homo sapiens, UniProt P00533); experiment: Protein tyrosine kinase phosphorylation assay, Test (a), EGFR; format: biochemical; conditions: recombinant intracellular fragment, ATP at Km concentration; read-out: IC50 (μM) Test (a): Inhibition of EGFR tyrosine kinase protein phosphorylation
T1 construct: Recombinant intracellular fragments of EGFR, erbB2 and erbB4; made in house; host or cells: baculovirus/Sf21 insect cells (cleared lysate used)
Procedure: (§1) This test measures the ability of a test compound to inhibit the phosphorylation of a tyrosine containing polypeptide substrate by an erb receptor tyrosine kinase enzyme.
(§2) Recombinant intracellular fragments of EGFR, erbB2 and erbB4 (accession numbers X00588, X03363 and L07868 respectively) were cloned and expressed in the baculovirus/Sf21 system. Lysates were prepared from these cells by treatment with ice-cold lysis buffer (20 mM N-2-hydroxyethylpiperizine-N′-2-ethanesulfonic acid (HEPES) pH7.5, 150 mM NaCl, 10% glycerol, 1% Triton X-100, 1.5 mM MgCl2, 1 mM ethylene glycol-bis(β-aminoethyl ether) N′,N′,N′,N′-tetraacetic acid (EGTA), plus protease inhibitors and then cleared by centrifugation.
(§3) Constitutive kinase activity of these recombinant proteins was determined by their ability to phosphorylate a synthetic peptide (made up of a random co-polymer of Glutamic Acid, Alanine and Tyrosine in the ratio of 6:3:1). Specifically, Maxisorb™ 96-well immunoplates were coated with synthetic peptide (0.2 μg of peptide in a 100 μl phosphate buffered saline (PBS) solution and incubated at 4° C. overnight). Plates were washed in 50 mM HEPES pH 7.4 at room temperature to remove any excess unbound synthetic peptide. EGFR or erbB2 activities were assessed by incubation in peptide coated plates for 20 minutes at room temperature in 50 mM HEPES pH 7.4 at room temperature, adenosine trisphosphate (ATP) at Km concentration for the respective enzyme, 10 mM MnCl2, 0.05 mM Na3VO4, 0.1 mM DL-dithiothreitol (DTT), 0.05% Triton X-100 with test compound in DMSO (final concentration of 2.5%). Reactions were terminated by the removal of the liquid components of the assay followed by washing of the plates with PBS-T (phosphate buffered saline with 0.05% Tween 20).
(§4) The immobilised phospho-peptide product of the reaction was detected by immunological methods. Firstly, plates were incubated for 90 minutes at room temperature with anti-phosphotyrosine primary antibodies that were raised in the mouse (4G10 from Upstate Biotechnology). Following extensive washing, plates were treated with Horseradish Peroxidase (HRP) conjugated sheep anti-mouse secondary antibody (NXA931 from Amersham) for 60 minutes at room temperature. After further washing, HRP activity in each well of the plate was measured colorimetrically using 22′-Azino-di-[3-ethylbenzthiazoline sulfonate (6)] diammonium salt crystals (ABTS™ from Roche) as a substrate.
(§5) Quantification of colour development and thus enzyme activity was achieved by the measurement of absorbance at 405 nm on a Molecular Devices ThermoMax microplate reader. Kinase inhibition for a given compound was expressed as an IC50 value. […] The range of phosphorylation was calculated from the positive (vehicle plus ATP) and negative (vehicle minus ATP) control values.

erbB2 tyrosine kinase = target: T2, erbB2 tyrosine kinase (Homo sapiens, UniProt P04626); experiment: Protein tyrosine kinase phosphorylation assay, Test (a), erbB2; format: biochemical; conditions: recombinant intracellular fragment, ATP at Km concentration; read-out: IC50 (μM) Test (a): Inhibition of erbB2 tyrosine kinase protein phosphorylation
T2 construct: Recombinant intracellular fragments of EGFR, erbB2 and erbB4; made in house; host or cells: baculovirus/Sf21 insect cells (cleared lysate used)
Procedure: as §1, §2, §3, §4, §5

[1] = target: T3, erbB2 in a MCF7 derived cell line (Clone 24 cells) (Homo sapiens, UniProt P04626); experiment: Clone 24 phospho-erbB2 cell assay, Test (d); format: cell-based; conditions: phosphorylation of erbB2 in a MCF7 derived cell line; read-out: IC50 (μM) Test (e): Inhibition of erbB2 tyrosine kinase protein phosphorylation
T3 construct: a cell line that overexpresses full length wild type erbB2 protein; expressed in transfected cells; host or cells: MCF7 (breast carcinoma) cells stably transfected, 'Clone 24'
Procedure: This immunofluorescence end point assay measures the ability of a test compound to inhibit the phosphorylation of erbB2 in a MCF7 (breast carcinoma) derived cell line which was generated by transfecting MCF7 cells with the full length erbB2 gene using standard methods to give a cell line that overexpresses full length wild type erbB2 protein (hereinafter ‘Clone 24’ cells).
Clone 24 cells were cultured in Growth Medium (phenol red free Dulbecco's modified Eagle's medium (DMEM) containing 10% foetal bovine serum, 2 mM glutamine and 1.2 mg/ml G418) in a 7.5% CO2 air incubator at 37° C. Cells were harvested from T75 stock flasks by washing once in PBS (phosphate buffered saline, pH7.4, Gibco No. 10010-015) and harvested using 2 mls of Trypsin (1.25 mg/ml)/ethylaminediaminetetraacetic acid (EDTA) (0.8 mg/ml) solution. The cells were resuspended in Growth Medium. Cell density was measured using a haemocytometer and viability was calculated using Trypan Blue solution before being further diluted in Growth Medium and seeded at a density of 1×10^4 cells per well (in 100 ul) into clear bottomed 96 well plates (Packard, No. 6005182).
3 days later, Growth Medium was removed from the wells and replaced with 100 ul Assay Medium (phenol red free DMEM, 2 mM glutamine, 1.2 mg/ml G418) either with or without erbB inhibitor compound. Plates were returned to the incubator for 4 hours and then 20 μl of 20% formaldehyde solution in PBS was added to each well and the plate was left at room temperature for 30 minutes. This fixative solution was removed with a multichannel pipette, 100 μl of PBS was added to each well and then removed with a multichannel pipette and then 50 μl PBS was added to each well. Plates were then sealed and stored for up to 2 weeks at 4° C.
Immunostaining was performed at room temperature. Cells were washed once with 200 μl PBS/Tween 20 (made by adding 1 sachet of PBS/Tween dry powder (Sigma, No. P3563) to 1 L of double distilled H2O) using a plate washer, then 100 μl of 0.5% Triton X-100/PBS was added to each well to permeabalise the cells. After 10 minutes, the plates were washed with 200 μl PBS/Tween 20 and then 100 μl Blocking Solution (5% Marvel dried simmed milk (Nestle) in PBS) was added per well and plates were incubated for 15 minutes. […] Plates were analysed within six hours of completing the immunostaining.
The Fluorescence signal is each well was measured using an Acumen Explorer Instrument (Acumen Bioscience Ltd.), a plate reader that can be used to rapidly quantitate features of images generated by laser-scanning. […] Fluorescence dose response data obtained with each compound was exported into a suitable software package (such as Origin) to perform curve fitting analysis. […]

T2 sequence (P04626 676-1255 limits assumed): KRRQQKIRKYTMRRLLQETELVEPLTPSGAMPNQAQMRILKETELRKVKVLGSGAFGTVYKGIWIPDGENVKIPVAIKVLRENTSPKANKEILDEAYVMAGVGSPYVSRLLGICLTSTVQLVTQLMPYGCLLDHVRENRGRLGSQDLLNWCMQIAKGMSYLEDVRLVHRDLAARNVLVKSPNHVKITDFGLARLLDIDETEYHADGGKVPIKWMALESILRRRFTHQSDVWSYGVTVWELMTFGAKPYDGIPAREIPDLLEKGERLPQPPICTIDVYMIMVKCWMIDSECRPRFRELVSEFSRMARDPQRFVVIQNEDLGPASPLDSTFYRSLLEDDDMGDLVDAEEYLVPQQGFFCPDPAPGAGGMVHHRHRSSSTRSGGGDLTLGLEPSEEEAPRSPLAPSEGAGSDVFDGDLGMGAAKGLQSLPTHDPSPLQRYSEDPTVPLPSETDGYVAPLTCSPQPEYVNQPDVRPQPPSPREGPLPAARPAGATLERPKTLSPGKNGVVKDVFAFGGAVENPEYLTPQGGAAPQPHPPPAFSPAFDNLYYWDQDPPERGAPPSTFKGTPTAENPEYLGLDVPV
T1 sequence (P00533 669-1210 limits assumed): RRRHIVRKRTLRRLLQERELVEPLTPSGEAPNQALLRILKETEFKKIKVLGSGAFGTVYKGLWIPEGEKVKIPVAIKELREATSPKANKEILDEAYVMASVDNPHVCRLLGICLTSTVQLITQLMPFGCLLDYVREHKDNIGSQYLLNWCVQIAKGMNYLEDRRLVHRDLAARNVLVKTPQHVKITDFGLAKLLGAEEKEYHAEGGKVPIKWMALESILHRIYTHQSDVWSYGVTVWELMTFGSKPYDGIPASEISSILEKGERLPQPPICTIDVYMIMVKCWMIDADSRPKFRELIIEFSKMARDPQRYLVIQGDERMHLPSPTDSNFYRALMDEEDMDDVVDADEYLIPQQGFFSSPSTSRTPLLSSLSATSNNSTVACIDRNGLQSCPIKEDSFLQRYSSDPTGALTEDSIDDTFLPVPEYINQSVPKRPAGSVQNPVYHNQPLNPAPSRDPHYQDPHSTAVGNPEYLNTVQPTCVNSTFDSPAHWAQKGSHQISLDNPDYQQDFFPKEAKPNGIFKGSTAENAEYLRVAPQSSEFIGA
T3 sequence (P04626 23-1255): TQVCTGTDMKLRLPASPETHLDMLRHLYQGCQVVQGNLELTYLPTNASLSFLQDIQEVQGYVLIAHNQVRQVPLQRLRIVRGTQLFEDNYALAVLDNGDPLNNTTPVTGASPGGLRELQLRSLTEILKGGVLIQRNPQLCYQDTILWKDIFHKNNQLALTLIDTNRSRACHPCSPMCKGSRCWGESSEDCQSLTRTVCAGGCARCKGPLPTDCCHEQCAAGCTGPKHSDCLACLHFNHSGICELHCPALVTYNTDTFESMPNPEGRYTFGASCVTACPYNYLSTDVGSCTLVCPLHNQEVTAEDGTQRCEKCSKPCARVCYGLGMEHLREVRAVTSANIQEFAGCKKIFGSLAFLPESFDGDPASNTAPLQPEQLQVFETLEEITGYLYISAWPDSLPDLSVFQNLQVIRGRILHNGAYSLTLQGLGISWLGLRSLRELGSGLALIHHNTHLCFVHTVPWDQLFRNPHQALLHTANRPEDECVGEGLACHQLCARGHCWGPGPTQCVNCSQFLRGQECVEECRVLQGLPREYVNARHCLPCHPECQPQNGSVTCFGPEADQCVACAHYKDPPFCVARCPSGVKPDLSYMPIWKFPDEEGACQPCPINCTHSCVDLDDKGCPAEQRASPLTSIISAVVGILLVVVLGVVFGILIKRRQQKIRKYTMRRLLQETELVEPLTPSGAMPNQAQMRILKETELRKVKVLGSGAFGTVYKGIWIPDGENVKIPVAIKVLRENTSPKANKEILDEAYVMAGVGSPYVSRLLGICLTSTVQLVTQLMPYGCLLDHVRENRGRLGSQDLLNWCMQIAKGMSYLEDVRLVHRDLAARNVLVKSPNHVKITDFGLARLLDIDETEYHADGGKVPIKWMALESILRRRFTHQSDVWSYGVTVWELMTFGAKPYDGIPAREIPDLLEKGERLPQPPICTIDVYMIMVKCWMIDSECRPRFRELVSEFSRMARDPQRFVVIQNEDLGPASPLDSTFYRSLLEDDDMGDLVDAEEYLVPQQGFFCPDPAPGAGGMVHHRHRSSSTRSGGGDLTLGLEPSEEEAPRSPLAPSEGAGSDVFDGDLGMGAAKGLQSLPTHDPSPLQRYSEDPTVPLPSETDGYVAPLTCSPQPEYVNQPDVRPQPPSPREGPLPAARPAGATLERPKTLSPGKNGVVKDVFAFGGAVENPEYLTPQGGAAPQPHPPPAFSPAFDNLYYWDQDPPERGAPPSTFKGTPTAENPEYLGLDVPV

IC50 (EGFR tyrosine kinase) [µM]	IC50 (erbB2 tyrosine kinase) [µM]	IC50 [1] [µM]	Compound
0.072	0.002	0.001	C[C@@H](Oc1cccc2ncnc(Nc3ccc(OCc4ccccn4)c(Cl)c3)c12)C(=O)N(C)C [Example 21, (2R)-2-[(4-{[3-Chloro-4-(pyridin-2-ylmethoxy)phenyl]amino}quinazolin-5-yl)oxy]-N,N-dimethylpropanamide]
0.135	0.002	0.001	C[C@H](Oc1cccc2ncnc(Nc3ccc(OCc4ccccn4)c(Cl)c3)c12)C(=O)N1CCC[C@H]1CO [Example 34, ((2S)-1-{(2S)-2-[(4-{[3-Chloro-4-(pyridin-2-ylmethoxy)phenyl]amino}quinazolin-5-yl)oxy]propanoyl}pyrrolidin-2-yl)methanol]
24.8	0.012	0.002	CC(C)(Oc1cccc2ncnc(Nc3ccc(OCc4ccccn4)c(Cl)c3)c12)C(N)=O [Example 42, 2-[(4-{[3-Chloro-4-(pyridin-2-ylmethoxy)phenyl]amino}quinazolin-5-yl)oxy]-2-methylpropanamide]
1.47	0.002	0.019	Cc1ccc(Oc2ccc(Nc3ncnc4cccc(OCC(=O)NCCO)c34)cc2C)cn1 [Example 52, N-(2-Hydroxyethyl)-2-{[4-({3-methyl-4-[(6-methylpyridin-3-yl)oxy]phenyl}amino)quinazolin-5-yl]oxy}acetamide]
